Source: US9448226B2, “Method of toxicological evaluation, method of toxicological screening and associated system” (Universite Technologie De Compiegne—UTC, priority 2010, dated 2016)

Key:
C3A cells = assay: Metabolic response of C3A cell culture in Petri dishes to APAP (1H NMR, PLS regression); type: cell-based, human; parameters: key: +: sign of the variation of its concentration (in brackets) when the amount of xenobiotic in the experiment increases; −: sign of the variation of its concentration (in brackets) when the amount of xenobiotic in the experiment increases; settings: amount of xenobiotic increases
Procedure: Fourth, the specific metabolic responses of bioartificial livers exposed to various toxins were characterized (Table 4). Several toxic substances (NH3 ([…]); DMSO (0%, 1%, 2%, 4%); APAP (0.1 mM)) were administered to bioartificial livers comprised of C3A cells. In the case of treatment with APAP, the response of the bioartificial liver was compared with that of liver cells in culture in Petri dishes. […] The result is four PLS models specific to each treatment type: NH3 on C3A bioartificial liver, DMSO on C3A bioartificial liver, APAP on C3A bioartificial liver and, finally, APAP on C3A cell culture in Petri dishes. […] This table presents for each metabolite the sign of the variation of its concentration (in brackets) when the amount of xenobiotic in the experiment increases.

HEPG2/C3A cells = assay: Metabolic response of C3A bioartificial liver in bioreactor to xenobiotic (1H NMR, PLS regression); type: cell-based, human; parameters: key: +: sign of the variation of its concentration (in brackets) when the amount of xenobiotic in the experiment increases; −: sign of the variation of its concentration (in brackets) when the amount of xenobiotic in the experiment increases
Excerpt: (§1) In the preferred embodiment described, ^1H NMR spectroscopy (proton NMR, which makes it possible to detect hydrogen atoms) was used to carry out a series of tests. These tests involved two cell lines and three potentially toxic substances, with the two lines being optionally in coculture. These cells are in one case HEPG2/C3A cells, or simply C3A, human hepatocyte cells, and in the other case Madin-Darby canine kidney (MDCK) cells. […] In particular, mention may be made of the pancreas, the heart, the testicles, parts of the brain, etc.
(§2) The medium samples are, for example, prepared using 350 μl of medium, mixed with 200 μl of 0.9 g/l saline solution composed of 90% water (H2O) and 10% heavy water (D2O), for the purpose of calibration. The 550 μl of solution is then transferred to an NMR analysis tube.
(§3) NMR is acquired at a frequency of 700 MHz by using a proton probe. A ^1D NMR spectrum is recorded using presaturation of the resonance of the water according to the following sequence: Trd-P90-t1-P90-tm-P90-Taq. Trd represents a delay of 2 seconds during which the resonance of the water is selectively irradiated, P90 is a 90° pulse of radio frequency and t1 corresponds to a delay of 3 μs. The resonance of the water is irradiated a second time during the mixing time (tm=100 ms) and an acquisition time of 1.95 s. For each sample, 128 interferograms are accumulated in order to increase the signal-to-noise ratio. These interferograms are multiplied by an exponential function corresponding to a 0.3 Hz enlarging of the line. Before obtaining a Fourier transform, the width of the interferogram is doubled by adding null points at the end of the interferogram, in order not to degrade the resolution of the spectrum. The scale in the horizontal dimension corresponds to the ^1H chemical shifts. It extends over a window of 10 ppm around the resonance of water. The scale in the vertical dimension corresponds to resonance intensity which is proportional to the number of protons present for a chemical group of each molecule of the sample. The spectra are then phased and a linear correction of the baseline is carried out, before calibration on the signal of the […] anomer of glucose at 5.23 ppm. The area between 4.67 ppm and 5 ppm around the residual signal of water is suppressed for better visibility, and the spectra are exported as a multidimensional data set.
(§4) The statistical analysis consists first of an unsupervised principal components analysis in order to locate aberrant points in the multidimensional data set. The principal components analysis makes it possible to compress the 40,000 redundant NMR present in the data set in a new orthonormal reference, with each axis representing a principal component of the variance of the data set, which is thus multidimensional. A so-called supervised multivariate statistical analysis is then carried out in order to discriminate culture conditions or groups of doses and to identify the metabolic signatures specific to the toxicological effects. This supervised analysis is principally carried out using partial least squares regression, through partial least squares discriminant analysis (PLS-DA), without however being limited to it. A PLS regression, just like a linear regression, makes it possible to identify the components of the data set (explanatory variables, X) that are quantitatively correlated with the non-explanatory variable (Y), whether the culture conditions, the cell type of the bioartificial organ, the type of treatment administered or the treatment dose. Artificial neural network structures can also be programmed to carry out this multivariate analysis.
(§5) Third, the metabolic responses of the various organs to various exposures to NH3 were studied. Three amounts of NH3 were administered (0 mM, 5 mM and 10 mM) to each type of bioartificial organ.

[1] = test system: Madin-Darby canine kidney (MDCK) cells; settings: Bioartificial kidney (MDCK cells); NH3 0 mM, 5 mM and 10 mM
Excerpt: as §1, §2, §3, §4, §5

C3A/MDCK coculture = settings: NH3 0 mM, 5 mM and 10 mM
Excerpt: as §1, §2, §3, §4, §5

[2] = C3A bioartificial liver, amount of xenobiotic increases (Table 4)
[3] = Bioartificial liver (C3A cells), NH3 0 mM, 5 mM and 10 mM

Compound: CC(=O)Nc1ccc(O)cc1 [APAP, N-acetyl-para-aminophenol]
- Variation of Arginine concentration (C3A cells): Arginine (−)
- Variation of Ethanol concentration (C3A cells): Ethanol (−)
- Variation of Glutamate concentration (C3A cells): Glutamate (−)
- Variation of Isoleucine concentration (C3A cells): Isoleucine (−)
- Variation of Leucine concentration (C3A cells): Leucine (−)
- Variation of Lysine concentration (C3A cells): Lysine (−)
- Variation of Phenylalanine concentration (C3A cells): Phenylalanine (−)
- Variation of Acetate concentration (HEPG2/C3A cells; [2]): Acetate (+)
- Variation of Isoleucine concentration (HEPG2/C3A cells; [2]): Isoleucine (−)
- Variation of Pyruvate/oxaloacetate concentration (HEPG2/C3A cells; [2]): oxaloacetate (−)
- Variation of Succinate concentration (HEPG2/C3A cells; [2]): Succinate (−)
- Variation of Tyrosine concentration (HEPG2/C3A cells; [2]): Tyrosine (+)
- Variation of Unknown metabolite concentration (HEPG2/C3A cells; [2]): Unknown (−)

Compound: C[S+](C)[O-] [DMSO, dimethyl sulfoxide]
- Variation of Alpha-keto-isovalerate concentration (HEPG2/C3A cells; [2]): isovalerate (−)
- Variation of Alpha-keto-methylvalerate concentration (HEPG2/C3A cells; [2]): methylvalerate (−)
- Variation of Glucose concentration (HEPG2/C3A cells; [2]): Glucose (+)
- Variation of Lactate concentration (HEPG2/C3A cells; [2]): Lactate (−)
- Variation of Phenylalanine concentration (HEPG2/C3A cells; [2]): Phenylalanine (+)
- Variation of Tyrosine concentration (HEPG2/C3A cells; [2]): Tyrosine (+)

Compound: N [NH3, ammonia]
- Variation of Glutamine concentration [1]: −
- Variation of Lysine concentration [1]: −
- Variation of Oxaloacetate concentration [1]: −
- Variation of Pyroglutamate concentration [1]: +
- Variation of Pyruvate concentration [1]: −
- Variation of Unknown metabolite concentration [1]: −
- Variation of Alpha-hydroxyisobutyrate concentration (C3A/MDCK coculture): +
- Variation of Glutamate concentration (C3A/MDCK coculture): +
- Variation of Glutamine concentration (C3A/MDCK coculture): +
- Variation of Lysine concentration (C3A/MDCK coculture): +
- Variation of Ornithine concentration (C3A/MDCK coculture): −
- Variation of Succinate concentration (C3A/MDCK coculture): +
- Variation of Valine concentration (C3A/MDCK coculture): +
- Variation of Alanine concentration (HEPG2/C3A cells; [3]): +
- Variation of Alpha-keto-isovalerate concentration (HEPG2/C3A cells; [3]): −
- Variation of Alpha-keto-methylvalerate concentration (HEPG2/C3A cells; [3]): −
- Variation of Isoleucine concentration (HEPG2/C3A cells; [3]): +
- Variation of Leucine concentration (HEPG2/C3A cells; [3]): +
- Variation of Succinate concentration (HEPG2/C3A cells; [3]): +
- Variation of Valine concentration (HEPG2/C3A cells; [3]): +
- Variation of Alanine concentration (HEPG2/C3A cells; [2]): Alanine (+)
- Variation of Alpha-keto-isovalerate concentration (HEPG2/C3A cells; [2]): isovalerate (−)
- Variation of Alpha-keto-methylvalerate concentration (HEPG2/C3A cells; [2]): methylvalerate (−)
- Variation of Isoleucine concentration (HEPG2/C3A cells; [2]): Isoleucine (+)
- Variation of Leucine concentration (HEPG2/C3A cells; [2]): Leucine (+)
- Variation of Succinate concentration (HEPG2/C3A cells; [2]): Succinate (+)
- Variation of Valine concentration (HEPG2/C3A cells; [2]): Valine (+)
